Assay: Antagonist activity at androgen receptor in human LNCAP cells assessed as inhibition of androgen-stimulated cell growth measured every 3 days

Compound | IC50 [µM]
CC(C)(O)c1cn(-c2ccc(Cl)c(C(F)(F)F)c2)nn1 | 49
CC(C)(O)c1cn(-c2ccc([N+](=O)[O-])c(C(F)(F)F)c2)nn1 | 45

From BindingDB's records for doi:10.1016/j.bmc.2014.03.018 (Deakin University, 2014)
